# Test system: CK8+ luminal cells
# Assay: Contralateral intraductal injection: FACS DNA content analysis of CK8+ luminal cells
# Format: in vivo, mouse
# Description: Nulliparous analysis was performed using adult (10-12-week-old) female mice. For timed pregnancies and lactation analysis, CD-1 pregnant adult females were obtained from Charles Rivers. Embryos were examined at the time of mammary gland harvesting to confirm pregnancy state. […] Plugged mice were considered to be PD0.5 on the day of the observed plug. All females used in this study were age matched. Mice were anesthetized with isoflurane (VetOne, 501017) Prior to intraductal injections, hair was removed from around the nipples using Nair hair remover. Injections into the duct of the nipple were performed with 33 G needles (Hamilton, 7803-05) and a volume of 40 μl per gland. Right inguinal, abdominal and thoracic glands were injected with doxorubicin (1.5 μg per gland, Cayman Chemical, 15007), nucleosides (40 μl per gland, Millipore-Sigma, ES-008-D) or Mk-1775 (50 μg per gland, Cayman Chemical, 21266), and left glands were injected with PBS or DMSO (Thermo Scientific, BP231) diluted in PBS. Mechanically dissociated inguinal, abdominal, and thoracic mammary fat pads were prepared into cell suspension for flow cytometry or fluorescence-activated cell sorting (FACS). The lymph node was removed from abdominal glands. Glands were chopped using a mechanical tissue chopper and digested for 1 h at 37° C. in digestion media [RPM1 containing 1% FBS, collagenase IA (Sigma, C9891), hyaluronidase (Sigma, H3506) and DNAse I (Worthington, LS002007)]. […] Tissue was further digested using pre-warmed 0.25% Trypsin-EDTA (Thermo Fisher, 25200056), washed, and digested with 5 mg/ml of pre-warmed dispase II (Roche, 4942078001). Red blood cells were lysed using Ammonium Chloride Solution (Stem Cell Technologies, 07850). Cells were washed, resuspended and filter through a 70 μm cell strainer (Falcon, 08-771-2) and processed for downstream applications. For DNA content analysis of the mammary gland CK8^+ epithelial population, mammary gland cells suspension was obtained as described above. Cells were fixed in ice-cold 70% EtOH at a final concentration of 10^6 cells/ml. During fixation, cells were vigorously vortexed for 1 min to avoid the formation of cell aggregates. Cells were washed twice with washing buffer [1×PBS containing 5% FBS and 0.5% tween 20 (Fisher Chemical, BP337500)] and centrifuged at 2,000 rpm for 5 min at 4° C. Cell pellet was incubated for 1 h at room temperature with anti-CK8 (Developmental Studies Hybridoma Lab, TROMA-1), anti-GFP (Thermo Fisher, A01704) or corresponding rat (Thermo-Fisher, 10700) or rabbit (Thermo-Fisher, 10500C) IgG isotype controls. Cells were washed twice and incubated for 1 h at room temperature in darkness with FITC anti-Rat (Thermo Fisher, A24544) or FITC anti-Rabbit (Thermo Fisher, A16030) and APC anti-Rat (Jackson ImmunoResearch, 712-136-153). Cells were washed twice and resuspended in propidium iodide solution [1×PBS containing 25 μg/ml of propidium iodide (Thermo Fisher, P3566) and 100 μg/ml of RNAse (Thermo Fisher, 12091021)]. For DNA content analysis on HC11, cells were washed with 1×DPBS (GIBCO, 14190-250) and harvested using 0.05% Trypsin-EDTA (GIBCO, 25300-062). Cell suspension was washed with 1×DPBS and centrifuged at 1,000 rpm for 5 min at 4° C. Cell pellet was fixed in ice-cold 70% EtOH and then vortexed vigorously to avoid cell aggregates. After fixation, cells were washed with washing buffer [1×PBS (GIBCO, 14190136) supplemented with 5% FBS] and centrifuged at 2,000 rpm for 5 min at 4° C. The pellet was resuspended in propidium iodide solution. Cell suspensions were filtered through a 70 μm cell strainer (Falcon, 08-771-2) and analyzed using a BD LSRII cytometer or a BD FACS Aria II Cell Sorter. Populations were analyzed using FlowJo.
# [1] = Mk-1775 IDI at PD16.5 vs contralateral DMSO, by LD5
# [2] = doxorubicin IDI at PD12.5 vs contralateral DMSO, MGs at PD17.5
Compound,"decrease in 4C CK8+ population (in the overall population) (Mk-1775 IDI (50 μg per gland) at PD16.5 vs contralateral DMSO, at LD2)","increase in 2C CK8+ population (in the overall population) (Mk-1775 IDI at PD16.5 vs contralateral DMSO, LD2)","increase in 2C CK8+ population (in the overall population) (Mk-1775 IDI at PD16.5 vs contralateral DMSO, LD5)",decrease in 4C CK8+ population (in the overall population) [1],decrease in >4C CK8+ population (in the overall population) [1],decrease in 2C luminal population (in the overall population) [2],increase in 4C luminal population (in the overall population) [2],increase in >4C luminal population (in the overall population) [2]
C=CCn1c(=O)c2cnc(Nc3ccc(N4CCN(C)CC4)cc3)nc2n1-c1cccc(C(C)(C)O)n1 [Mk-1775],19.4%,7.7%,12.4%,3.2%,16.31%,–,–,–
COc1cccc2c1C(=O)c1c(O)c3c(c(O)c1C2=O)C[C@@](O)(C(=O)CO)C[C@@H]3O[C@H]1C[C@H](N)[C@H](O)[C@H](C)O1 [doxorubicin],–,–,–,–,–,5.23%,14.86%,47.1%
